Series [1] has as its system panel of 38 in vitro toxicity targets (receptors, channels, transporters). As to the kind of experiment: Broad selectivity panel (Cerep), radioligand receptor binding assays. Conditions: 1uM. As for the experimental part: Selectivity was assessed at Cerep (Celle l’ Evescault, France), as described in the Cerep catalog, against a panel of in vitro radioligand receptor binding assays with 38 different receptors, channels, and transporters selected as targets to avoid for safety reasons (beta 1, beta 2, NMDA, MAO-A, 5-HT1B, CCK1 (CCKA), BZD (central), delta (DOP), A2A, CB1, CB2, D1, D2S, ETA, H1, H2, M1, M2, M3, 5-HT1A, 5-HT2A, 5-HT2B, 5-HT3, GR, AR, V1a, kappa (KOP), mu (MOP), alpha 1A, alpha 2A, Ca2+ channel, Potassium Channel, Kv channel, Na+ channel, N neuronal alpha 4 beta 2, norepinephrine transporter, dopamine transporter, 5-HT transporter). The specific ligand binding to the receptors is defined as the difference between the total binding, and the nonspecific binding determined in the presence of an excess of unlabelled ligand.

For series [2] the following is noted: rat, in vivo.
Series [3] can be described thus: Binding in the assay medium. It is filed as in vitro ADME. From the text: These early experiments also allowed us to use the PK Tool to predict the dose to use in the mouse efficacy models. As part of the prediction we need to recognise that the measured in vitro potency will be different from that in whole blood. […] They also display high protein binding in plasma, assay media and microsomal stability assays. […] Measurement of binding of LSHTM-3520 in the assay medium gave a free fraction, Fu of 0.0014. An experiment was run using LSHTM-3520 to determine whether the potency shift on varying the plasma protein level in the in vitro assay accords with prediction.

The text below walks through data of publication PMC8321398, “The discovery of a novel series of compounds with single-dose efficacy against juvenile and adult Schistosoma species” (PLoS Neglected Tropical Diseases, 2021).

Take `Fc1ccc(-c2cn3c(-c4ccc5[nH]ncc5c4F)c(C(F)(F)F)nc3cn2)cc1C(F)(F)C(F)(F)F` [LSHTM-3645]: the “activity against panel of 38 in vitro toxicity targets” value in series [1] is “no reproduceable activity”.
For `Fc1ccc(-c2cn3c(-c4ccc5[nH]ncc5c4F)c(C(F)(F)F)nc3cn2)cc1C(F)(F)F` [LSHTM-3642, 3-(4-fluoro-1H-indazol-5-yl)-6-(4-fluoro-3-(trifluoromethyl)phenyl)-2-(trifluoromethyl)imidazo[1,2-a]pyrazine], in series [2] (iv, 1 mg/kg), the Clobs stood at 3.33 mL/min/kg. The “Plasma conc @ 24 h after oral dose” value in series [2] (po, 10 mg/kg, 24 h) is on record as 357 ng/mL.
With `CC(C)c1nc2cnc(-c3ccc(F)c(C(F)(F)F)c3)cn2c1-c1c(F)cc(O)cc1F` [LSHTM-3520], the fraction unbound in series [3] (bovine, assay medium of the in vitro potency assay, read-out: free fraction, Fu) is 0.0014. This compound registered a recovery in series [3] (bovine, in vitro potency assay medium with Foetal Bovine Serum, in vitro assay medium) of 69.3%. In addition, the Assay medium %binding in series [3] (in vitro assay medium) is on record as 99.86%.
